Reference: PMC3639963, “A New Class of Small Molecule Inhibitor of BMP Signaling” (PLoS ONE, 2013)
Several values for one entry are separate records, joined by “and”; a condition that tells them apart may be missing. Identical values can stand only once. Entries after “also recorded” stand apart in the source; their conditions may differ.

Key:
NEK1 = target: T1, NEK1 (Homo sapiens, UniProt Q96PY6); experiment: DSF thermal shift; assay type: binding; settings: 10 µM inhibitor; read-out: Tm shift
T1 construct: purchased Nanosyn (enzymatic panel); SGC in-house recombinant human kinases (DSF panel); Invitrogen (ALK1-6)
T1 sequence (Q96PY6 1-1258): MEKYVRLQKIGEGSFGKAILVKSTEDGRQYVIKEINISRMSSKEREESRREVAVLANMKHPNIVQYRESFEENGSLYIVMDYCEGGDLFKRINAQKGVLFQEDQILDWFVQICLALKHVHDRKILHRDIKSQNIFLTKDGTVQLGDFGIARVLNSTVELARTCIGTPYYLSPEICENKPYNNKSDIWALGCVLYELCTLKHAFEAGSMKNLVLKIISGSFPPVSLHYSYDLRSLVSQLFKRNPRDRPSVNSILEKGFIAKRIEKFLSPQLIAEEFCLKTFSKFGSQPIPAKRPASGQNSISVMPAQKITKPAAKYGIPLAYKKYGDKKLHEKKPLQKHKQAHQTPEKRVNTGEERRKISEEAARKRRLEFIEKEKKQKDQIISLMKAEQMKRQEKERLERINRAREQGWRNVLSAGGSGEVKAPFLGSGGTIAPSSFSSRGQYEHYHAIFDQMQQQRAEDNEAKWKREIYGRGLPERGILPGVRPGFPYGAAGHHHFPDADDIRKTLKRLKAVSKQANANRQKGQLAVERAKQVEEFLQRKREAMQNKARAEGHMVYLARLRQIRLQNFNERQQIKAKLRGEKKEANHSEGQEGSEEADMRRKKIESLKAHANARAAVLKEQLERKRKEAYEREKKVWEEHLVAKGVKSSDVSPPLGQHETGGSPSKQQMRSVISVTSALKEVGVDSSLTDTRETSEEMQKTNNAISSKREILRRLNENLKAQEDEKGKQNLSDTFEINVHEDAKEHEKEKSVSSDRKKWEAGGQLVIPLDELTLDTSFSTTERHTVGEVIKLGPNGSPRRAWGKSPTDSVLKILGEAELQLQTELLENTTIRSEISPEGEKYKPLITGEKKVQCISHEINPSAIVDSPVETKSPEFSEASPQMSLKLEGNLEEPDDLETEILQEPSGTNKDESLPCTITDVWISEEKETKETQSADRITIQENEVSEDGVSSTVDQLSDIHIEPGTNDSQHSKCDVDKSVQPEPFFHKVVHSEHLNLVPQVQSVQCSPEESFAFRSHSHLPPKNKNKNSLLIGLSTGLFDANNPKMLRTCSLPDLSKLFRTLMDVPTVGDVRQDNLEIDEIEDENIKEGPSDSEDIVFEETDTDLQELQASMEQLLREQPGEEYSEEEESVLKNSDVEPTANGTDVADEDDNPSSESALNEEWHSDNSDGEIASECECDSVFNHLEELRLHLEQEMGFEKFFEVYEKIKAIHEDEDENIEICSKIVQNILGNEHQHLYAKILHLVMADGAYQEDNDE
Procedure, shortened: (§1)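 Thermal melt, qPCR cycler; kinase 1–2 µM, compound 10 µM.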

CDK2 = target: T2, CDK2 (Homo sapiens, UniProt P24941); experiment: DSF thermal shift; assay type: binding; settings: 10 µM inhibitor; read-out: Tm shift
T2 construct: purchased Nanosyn (enzymatic panel); SGC in-house recombinant human kinases (DSF panel); Invitrogen (ALK1-6)
Procedure, shortened: as §1

LOK = target: T3, LOK (Homo sapiens, UniProt O94804); experiment: DSF thermal shift; assay type: binding; settings: 10 µM inhibitor; read-out: Tm shift
T3 construct: purchased Nanosyn (enzymatic panel); SGC in-house recombinant human kinases (DSF panel); Invitrogen (ALK1-6)
T3 sequence (O94804 whole entry): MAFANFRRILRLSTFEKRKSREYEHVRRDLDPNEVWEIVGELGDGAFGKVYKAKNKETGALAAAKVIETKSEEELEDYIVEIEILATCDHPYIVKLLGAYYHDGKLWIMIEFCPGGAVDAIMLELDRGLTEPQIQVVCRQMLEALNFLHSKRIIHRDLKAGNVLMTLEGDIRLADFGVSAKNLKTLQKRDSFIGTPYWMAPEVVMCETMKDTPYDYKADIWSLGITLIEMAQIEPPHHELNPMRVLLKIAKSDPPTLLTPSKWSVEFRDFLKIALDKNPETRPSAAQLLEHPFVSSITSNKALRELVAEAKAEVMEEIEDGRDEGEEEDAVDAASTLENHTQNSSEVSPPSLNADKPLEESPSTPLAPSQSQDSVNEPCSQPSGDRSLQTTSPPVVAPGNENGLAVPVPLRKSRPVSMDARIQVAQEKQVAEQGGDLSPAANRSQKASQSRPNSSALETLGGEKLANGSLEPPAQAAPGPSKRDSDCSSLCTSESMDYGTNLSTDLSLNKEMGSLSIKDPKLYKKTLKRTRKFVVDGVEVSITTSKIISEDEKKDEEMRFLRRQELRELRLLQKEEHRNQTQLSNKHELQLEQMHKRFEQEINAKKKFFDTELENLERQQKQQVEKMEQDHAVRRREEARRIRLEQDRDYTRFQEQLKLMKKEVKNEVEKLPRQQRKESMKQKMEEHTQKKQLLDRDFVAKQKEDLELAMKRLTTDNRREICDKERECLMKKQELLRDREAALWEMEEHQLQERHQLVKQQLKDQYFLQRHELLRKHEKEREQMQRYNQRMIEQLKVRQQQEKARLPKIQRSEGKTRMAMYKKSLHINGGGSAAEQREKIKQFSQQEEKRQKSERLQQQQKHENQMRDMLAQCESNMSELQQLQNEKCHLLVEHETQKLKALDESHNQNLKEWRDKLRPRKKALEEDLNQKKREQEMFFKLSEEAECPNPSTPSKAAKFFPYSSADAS
Procedure, shortened: as §1

PIM1 = target: T4, PIM1 (Homo sapiens, UniProt P11309); experiment: DSF thermal shift; assay type: binding; settings: 10 µM inhibitor; read-out: Tm shift
T4 construct: purchased Nanosyn (enzymatic panel); SGC in-house recombinant human kinases (DSF panel); Invitrogen (ALK1-6)
T4 sequence (P11309 whole entry): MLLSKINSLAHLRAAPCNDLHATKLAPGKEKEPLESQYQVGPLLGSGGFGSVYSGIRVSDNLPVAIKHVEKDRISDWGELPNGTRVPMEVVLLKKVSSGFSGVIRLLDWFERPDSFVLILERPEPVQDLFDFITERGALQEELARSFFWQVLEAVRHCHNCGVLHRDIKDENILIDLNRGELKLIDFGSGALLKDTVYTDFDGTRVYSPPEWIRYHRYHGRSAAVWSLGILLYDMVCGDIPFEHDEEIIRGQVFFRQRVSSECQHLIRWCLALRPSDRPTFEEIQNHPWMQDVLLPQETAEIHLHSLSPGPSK
Procedure, shortened: as §1

[1] = system: Tg(fli1a:eGFP) zebrafish embryos; experiment: Intersomitic vessel (ISV) formation in zebrafish embryos; assay type: in vivo; settings: treated from 12 hpf, scored at 48 hpf
Procedure: The zebrafish colony was maintained as described and embryos were raised at 28.5°C. The Tg(BRE:mRFP) transgenic line (also called BRE-mRFP) has been described previously and expresses mRFP in response to BMP signaling. […] Inhibitor stocks were diluted in DMSO and then further diluted in fish water to give the required inhibitor concentrations. To minimize the amount of inhibitors used, experiments were performed in 24-well plates with approximately 20 embryos per well in a volume of 1 mL. The chemical treatment was applied by immersing 8- to 16-cell stage Tg(BRE:mRFP) embryos (dorsalization experiment) or 12 hours old […]) embryos (ISV experiment) in the fish water supplemented with DMSO or the chemical inhibitors. For the ISV experiment, embryos were manually dechorionated after bud stage before treatment. Embryos were scored and photographed at 26 or 48 hours.

[2] = system: TGF-β-induced phosphorylation of Smad2 in C2C12 cells; experiment: TGF-β-induced phosphorylation of Smad2, Western blot; assay type: cell-based; settings: qualitative
Procedure: (§2) C2C12 and HEK293 cells were grown in DMEM supplemented with 10% FCS (PAA) and seeded at a density of 1 x 10^5 cells per well in 6-well plates. The next day the cells were starved in DMEM containing 1% FCS for 5 hours. Inhibitors were added at the indicated concentrations for 30 minutes followed by 10 ng/mL BMP4 (Peprotech), 100 ng/mL BMP6 (Peprotech), 100 ng/mL Activin A (Peprotech) or 2 ng/mL TGF-β1 (Cell Signaling) for 1 hour. Cells were washed in PBS and lysed on ice for 30 minutes in lysis buffer (20 mM Tris-HCl pH 7.5, 150 mM NaCl, 1% Triton X-100, 25 mM NaF, 25 mM Na β-glycerophosphate, 2 mM Na3VO4) containing protease inhibitors (Roche). Protein concentration in the clarified lysate was determined by Bradford Assay (Pierce) and 15 µg run on 4–12% Bis-Tris gel (Biorad). The protein was transferred onto nitrocellulose membrane (GE Healthcare) and probed with the relevant antibody at 4°C overnight (Cell Signaling: anti-Smad 1 (#9743), anti-P-Smad 1/5/8 (#9511), anti-Smad 2 (#5339), anti-P-Smad 2 (#3101). After subsequent incubation with HRP-conjugated anti-rabbit antibody, protein bands were detected using ECL (Pierce) and an LAS4000 image reader. Cells were purchased originally from the European Collection of Cell Cultures (ECACC) available through Sigma.

SIK = experiment: Nanosyn kinase profiling; assay type: biochemical, human
Procedure: Percentage inhibition was determined for each kinase at both 0.1 µM and 1 µM inhibitor concentration (supplemental Table S2). […]. […]. When visualized on a kinase phylogenetic tree, these were primarily clustered within the receptor tyrosine kinases (TKs) as well as the calmodulin-dependent kinases (CAMKs) (Figure 2C).
Inhibitor selectivity profiling against 200 human kinases at 0.1 and 1 µM inhibitor concentration was performed by Nanosyn (www.nanosyn.com).

[3] = system: Activin A-induced P-Smad2 in HEK293 cells; experiment: Activin A-induced P-Smad2, Western blot; assay type: cell-based; settings: for inhibition of Smad2 phosphorylation: 0.5 µM, Activin A; for inhibition of Activin A-induced P-Smad2: qualitative
Procedure: as §2

Row | ΔTm at 10 µM (NEK1) | ΔTm at 10 µM (CDK2) | ΔTm at 10 µM (LOK) | ΔTm at 10 µM (PIM1) | Percentage inhibition (SIK; 0.1 µM inhibitor) | ISV formation phenotype ([1]; 10–20 µM) | Compound | ISV formation phenotype ([1]; 10 µM) | effect on TGF-β-induced phosphorylation of Smad2 [2] | Percentage inhibition (SIK; 1 µM inhibitor) | inhibition of Smad2 phosphorylation [3] | inhibition of Activin A-induced P-Smad2 [3] | Percentage inhibition (SIK; 0.1 µM inhibitor, 0.1 µM)
1 | 0.1 °C | 2.5 °C | 2.5 °C | 0.6 °C |  |  | c1cc(-c2cnn3cc(-c4ccc(OCCN5CCCCC5)cc4)cnc23)ccn1 [Dorsomorphin] | defects in intersomitic vessel (ISV) formation |  |  |  |  | 
2 | 0.2 °C | 0.1 °C | 2.1 °C | 0.1 °C | 9.4% | no ISV defects | COc1cc(-c2cc(-c3cccc(O)c3)cnc2N)cc(OC)c1OC [K02288, 3-[6-amino-5-(3,4,5-trimethoxy-phenyl)-pyridin-3-yl]-phenol] | no phenotype | no effect | 57% | near complete inhibition | weakly inhibited | 

Row | Compound | ΔTm at 10 µM (NEK1) | ΔTm at 10 µM (CDK2) | ΔTm at 10 µM (LOK) | ΔTm at 10 µM (PIM1) | Percentage inhibition (SIK; 0.1 µM inhibitor) | ISV formation phenotype ([1]; 10–20 µM) | ISV formation phenotype ([1]; 10 µM) | effect on TGF-β-induced phosphorylation of Smad2 [2] | Percentage inhibition (SIK; 1 µM inhibitor) | inhibition of Smad2 phosphorylation [3] | inhibition of Activin A-induced P-Smad2 [3] | Percentage inhibition (SIK; 0.1 µM inhibitor, 0.1 µM)
3 | c1ccc2c(-c3cnn4cc(-c5ccc(N6CCNCC6)cc5)cnc34)ccnc2c1 [LDN-193189] | 0.2 °C | 0.7 °C | 3.1 °C | 0.5 °C |  |  | defects in intersomitic vessel (ISV) formation; also recorded: weak ISV defects | no effect | 96% | near complete inhibition | weakly inhibited | 63% and > 50%
